Assay results from patent US11813264B2, “PAR1 modulation to alter myelination” (Mayo Foundation for Medical Education and Research, priority 2014, dated 2023).
Entries after “also recorded” stand apart in the source; their conditions may differ.

Columns and labels:
[1] = test system: oligodendrocyte progenitor cells (OPCs); test: OPC process outgrowth; type: cell-based, mouse
Description: Oligodendrocyte Cultures: Purified cortical oligodendrocyte progenitor cells (OPCs) and differentiated oligodendrocytes were isolated from mixed glial cultures derived from postnatal day 1 mice (McCarthy and de Vellis, J Cell Blot 85:890-902, 1980). Glial cultures were grown in media containing DMEM, 2 mM Glutamax, 1 mM sodium pyruvate, 20 mM HEPES, and 10% heat-inactivated fetal calf serum (Atlanta Biologicals, Lawrenceville, GA). OPCs were isolated from 10 days-in-vitro (DIV) mixed glial cultures by overnight shaking and purified by differential adhesion. OPCs were seeded in defined Neurobasal A media containing 1% N2, 50 U/mL penicillin/streptomycin, 2 mM Glutamax, 1 mM sodium pyruvate, 0.45% glucose, and 50 μM β-mercaptoethanol (Sigma Aldrich, USA). OPCs were seeded at 3×10^4/cm^2 onto tissue culture plastic or 12 mm glass cover slips coated with poly-L-lysine (PLL, 10 μg/mL). After 24 h, cultures were 92-98% immunoreactive (IR) for sulfatide (O4) and by 72 hours at least 80% were also MBP-IR.
PAR agonist-induced changes in oligodendrocyte morphology: To determine the effects of recombinant Klk6, Klk1, thrombin, or PAR1-AP on oligodendroglia, 3 DIV PAR1^+/+, PAR1^−/−, and PAR2^−/− oligodendrocytes, PAR1^+/+ OPCs immediately post purification, or Oli-neu cells were grown on cover slips in the presence of agonists for 24 h. For ATP toxicity assays, oligodendrocytes were incubated with ATP (50 μM, Sigma Aldrich) in the presence of Klk6 or Klk1. Following each treatment, oligodendrocyte and OPC cultures were immunolabeled for O4 to visualize the cell body and processes. Oli-neu processes were visualized by staining the actin cytoskeleton with Cy3-conjugated Phalloidin.
To assess the effects of Klk6 and other PAR1 agonists on oligodendrocyte morphology and process stability, 20× digital micrographs were overlaid with a 780 μm^2 grid and ImageJ software 1.45r (National Institutes of Health) used to record cell number and the number of processes crossing horizontal grid lines (Scarisbrick et al., Brain 125:1283-1296, 2002). Data are expressed as the mean number of O4^+ or Phalloidin^+ processes per DAPI^+ cell (±SEM).
Changes in OPC or oligodendrocyte morphology were quantified from five microscopic fields per cover slip with the mean and SEM calculated across three cover slips per experiment. Each experiment was repeated at least twice using independent cultures. Analysis of oligodendrocyte morphology was performed without knowledge of treatment groups.

[2] = test system: Erk1/2 phosphorylation; test: Klk6-PAR signaling assay, Erk1/2 phosphorylation by Western blot in Oli-neu; type: cell-based, mouse
Description: Klk6-PAR signaling assays: To examine the ability of Klk6 to mediate PAR-dependent signaling in oligodendrocytes, Oli-neu oligodendroglia (3.5×10^5 cells/well in six-well plates) were treated with Klk6 (150 nM) for 10 min, followed by protein harvest. Cell lysates were analyzed for phosphorylated or nonphosphorylated Erk1/2 by Western blot. In experiments to determine the role of PARs in Klk6 signaling, Oli-neu were preincubated with the PAR1 antagonist, SCH79797 dihydrochloride (50 nM, Tocris Biosciences, Minneapolis, MN) for 30 minutes prior to Klk6 application.
Western blot: Oli-neu lysates were obtained using a buffer containing 1% NP40, 0.5% deoxycholate, 10% glycerol, and 20 mM Tris base and separated on SDS-polyacrylamide gels prior to transfer. Membranes were blocked with 5% milk in TBS-T and incubated overnight with primary antibodies including rabbit anti-phospho-Erk1/2 (1:1,000, Cell Signaling Technology, Danvers, MA), followed with a species-appropriate horseradish peroxidase-conjugated secondary antibody (1:20,000 GE Healthcare Unlimited, UK). Signal was detected using Chemiluminescence Supersignal Pico (Pierce, Rockford, IL). Western blots were repeated three times from independent cultures, scanned, and quantified by densitometry (BioRad Quantity One 1-D Analysis Software, BioRad, Hercules, CA). Erk1/2 signal was normalized to its nonphosphorylated form. Equal loading was verified by reprobing blots for […] (Novus Biologicals, Littleton, CO).

[3] = biological target: T1, PAR1 (Mus musculus, UniProt P30558); test: Neural precursor cell proliferation (BrdU incorporation); type: cell-based; parameters: endogenous in cells; conditions: 70, 35, 10 or 1 nM; NPCs from adult SVZ
T1 sequence (P30558 22-430): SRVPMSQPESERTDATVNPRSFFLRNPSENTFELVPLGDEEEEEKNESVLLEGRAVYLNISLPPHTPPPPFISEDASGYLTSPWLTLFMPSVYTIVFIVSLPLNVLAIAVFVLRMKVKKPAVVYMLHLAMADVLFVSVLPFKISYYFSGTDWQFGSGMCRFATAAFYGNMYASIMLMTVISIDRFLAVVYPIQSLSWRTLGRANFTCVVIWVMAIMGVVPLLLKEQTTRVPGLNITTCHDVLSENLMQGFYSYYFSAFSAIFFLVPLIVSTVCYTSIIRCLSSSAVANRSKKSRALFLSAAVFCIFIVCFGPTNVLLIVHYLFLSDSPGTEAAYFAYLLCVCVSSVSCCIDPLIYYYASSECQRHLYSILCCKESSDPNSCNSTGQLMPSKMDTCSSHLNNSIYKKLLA
Description: Effects of pharmacologic inhibition of PAR1 on NPC proliferation in vitro: NPCs were isolated from the SVZ of 8 week-old adult C57BL6/J mice, cultured in suspension, and treated with 70, 35, 10, or 1 nM of SCH79797, a small molecule inhibitor of PAR1.

[4] = biological target: T1, PAR1; test: Oligodendrocyte gene expression after PAR1 inhibitor treatment, real time RT-PCR; type: cell-based; parameters: endogenous in cells; host or cells: primary mouse oligodendrocytes (OPCs shaken from P1 cortical mixed glial cultures); conditions: 70 nM for 48 hours
[5] = biological target: T1, PAR1; test: Organotypic cerebellar slice culture with PAR1 inhibitor; type: cell-based; parameters: endogenous in cells; host or cells: primary mouse oligodendrocytes (OPCs shaken from P1 cortical mixed glial cultures); conditions: 70 nM, 7 days
Description: Pharmacologic inhibition of PAR1 in an organotypic cerebellar slice culture system: Cerebellar slices (350 μm) from postnatal day 8 mouse brain were grown in cell culture for 7 days in the presence or absence of 70 nM SCH79797, a small molecule inhibitor of PAR1. Cerebellar slices were then fixed with 2% paraformaldehyde and stained using immunofluorescence techniques for myelin associated makers, including MBP, a marker of mature oligodendrocytes (CC-1), and for a marker of oligodendrocyte progenitor cells (NG2). The photomicrographs in FIG. 16 show staining for each individual antigen, or for all of the antigens collectively in a single slice, as indicated.

CC(C)c1ccc(Cn2ccc3c4c(N)nc(NC5CC5)nc4ccc32)cc1 [SCH79797]
Klk6-mediated inhibition of process outgrowth in presence of inhibitor ([1]; SCH79797 50 nM): diminished
attenuation of the ability of Klk6 to reduce OPC process outgrowth ([1]; SCH79797 50 nM for 3 hours prior to Klk6): ~34%
OPC process outgrowth relative to vehicle controls ([1]; SCH79797 alone): no significant effect
ability of Klk6 to induce MAPK (Erk1/2) signaling in presence of inhibitor ([2]; SCH79797 50 nM, preincubated 30 minutes): blocked; also recorded: abolished
Erk1/2 phosphorylation ([2]; treatment alone, Klk6 10 minutes): No significant changes
BrdU incorporation [3]: greater levels
NogoA RNA [4]: decrease
Olig2 RNA [4]: decrease
expression of MBP RNA [4]: significant increase
expression of PLP RNA ([4]; oligodendrocytes 24 hours in culture): significant increase
number of mature oligodendrocytes (CC-1) [5]: significant increases
number of progenitor cells positive for NG2 [5]: significant increases
abundance of MBP ([5]; P8 cerebellar slices): significant increases
